The source of these data is patent US20080287445A1, “Prokineticin 2 receptor antagonists” (priority 2005, published 2008).

Where “and” joins values, the source holds several entries; their conditions need not be identical. Equal values may be shown once.

The test addresses T1, GPR73 (prokineticin 1 receptor) (Homo sapiens, UniProt Q8TCW9).
T1 construct: expressed in transfected cells; host or cells: HEK 293
Briefly: PK1 functional assay: Ca2+ mobilization screening for PK1 antagonists on the FLIPR. To be noted: HEK 293 GPR73 cells, multiple values = multiple testing; for inhibition at 10 µM: HEK293, 10 μM compound, read-out: Ca^2+ Mobilization % Inh @ 10 μM; for IC50: PK1 ligand preparation at its EC50, read-out: Ca^2+ Mobilization IC50; for Ca^2+ Mobilization % Inh @ 10 μM: 10 μM compound. The format is cell-based. In outline: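 HEK293 cells expressing human GPR73 were loaded with Calcium Plus dye, then on FLIPR given compound for 4 min 15 s before PK1 ligand at its predetermined EC50. Baseline-subtracted fluorescence over 1 min 45 s gave percent inhibition versus maximal signal; IC50 fitted.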

T1 sequence (Q8TCW9 whole entry, species assumed): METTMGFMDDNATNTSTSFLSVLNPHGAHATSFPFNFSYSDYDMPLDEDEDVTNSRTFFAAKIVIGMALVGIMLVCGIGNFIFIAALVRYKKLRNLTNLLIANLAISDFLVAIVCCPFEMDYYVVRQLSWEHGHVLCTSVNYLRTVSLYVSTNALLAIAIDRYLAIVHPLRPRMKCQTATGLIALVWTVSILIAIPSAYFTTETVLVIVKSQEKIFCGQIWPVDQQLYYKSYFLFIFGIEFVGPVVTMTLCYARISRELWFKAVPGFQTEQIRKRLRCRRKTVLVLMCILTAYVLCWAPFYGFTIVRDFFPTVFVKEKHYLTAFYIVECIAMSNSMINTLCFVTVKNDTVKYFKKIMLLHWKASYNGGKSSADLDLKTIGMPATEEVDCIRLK

Take `CCc1ccccc1Cn1c(NCc2cccnc2N)nc(=O)n(Cc2ccc(OC)cc2)c1=O` [Cpd 86]: the inhibition at 10 µM amounted to 31% and the IC50 is over 10000 nM.
Consider `COc1ccc(Cn2c(NCc3cccnc3)nc(=O)n(Cc3ccc(Cl)c(Cl)c3)c2=O)cc1` [Cpd 2], for which the inhibition at 10 µM was determined as 47% and the IC50 is over 10000 nM.
For `COc1ccc(Cn2c(=O)nc(NCc3cnc(C)cc3C)n(Cc3ccncc3)c2=O)cc1` [Cpd 101], in that order: 60% and 3300 nM.
For `COc1ccc(Cn2c(=O)nc(NCc3cnc(C)cc3C)n(Cc3ccc4[nH]ccc4c3)c2=O)cc1` [Cpd 130], in that order: 92% and 245 nM.
Take `COc1ccc(Cn2c(NCc3cncnc3N)nc(=O)n(Cc3ccc(OC)cc3)c2=O)cc1` [Cpd 6]: the inhibition at 10 µM worked out at 90% and the IC50 is 176 nM.
For `COc1ccc(Cn2c(SCc3cccnc3)cc(=O)n(Cc3ccc(OC)cc3)c2=O)cc1` [Cpd 211, 1,3-Bis-(4-methoxy-benzyl)-6-(pyridin-3-ylmethylsulfanyl)-1H-pyrimidine-2,4-dione], in that order: 52% and 4580 nM.
For `COc1ccc(Cn2c(=O)nc(NCc3cnc(C)cc3C)n(Cc3ccc(Cl)cc3)c2=O)cc1` [Cpd 117], in that order: 97% and 218 nM.
For `COc1ccc(Cn2c(NCc3ccc4c(n3)NCCC4)nc(=O)n(Cc3ccc(F)cc3)c2=O)cc1` [Cpd 21, 3-(4-Fluoro-benzyl)-1-(4-methoxy-benzyl)-6-[(5,6,7,8-tetrahydro-[1,8]naphthyridin-2-ylmethyl)-amino]-1H-[1,3,5]triazine-2,4-dione], in that order: 85% and 656 nM.
Turning to `COc1ccc(Cn2c(NCc3c(C)cc(C)nc3N)nc(=O)n(Cc3ccc(OC)cc3)c2=O)cc1` [Cpd 97, 6-[(2-Amino-4,6-dimethyl-pyridin-3-ylmethyl)-amino]-1,3-bis-(4-methoxy-benzyl)-1H-[1,3,5]triazine-2,4-dione], the “Ca^2+ Mobilization % Inh @ 10 μM” value is 96% and 98%; the inhibition at 10 µM stood at 90%; the IC50 was 6 nM and 7 nM and 19 nM.
Consider `COc1ccc(Cn2c(=O)nc(NCc3cccnc3N)n(CC3CCC(OC)CC3)c2=O)cc1` (stereo not drawn) [Cpd 149], for which the inhibition at 10 µM worked out at 86% and the half-inhibitory concentration (IC50) is 788 nM.
For `COc1ccc(Cn2c(=O)nc(NCc3cccnc3N)n(Cc3ccc(OC)c([N+](=O)[O-])c3)c2=O)cc1` [Cpd 137], in that order: 68% and 1040 nM.
For `COc1ccc(Cn2c(=O)nc(NCc3cccnc3N)n(Cc3ccc4[nH]ccc4c3)c2=O)cc1` [Cpd 127], in that order: 81% and 607 nM.
In the case of `COc1ccc(Cn2c(OC(C)c3ccnc(N)c3)cc(=O)n(Cc3ccc(OC)cc3)c2=O)cc1` (stereo not drawn) [Cpd 225], the inhibition at 10 µM was 68% and the concentration for half-maximal inhibition (IC50) is 3780 nM.
For `COc1ccc(Cn2c(NCc3cnc(C)cc3C)nc(=O)n(Cc3ccc4[nH]ccc4c3)c2=O)cc1` [Cpd 229], in that order: 41% and over 10000 nM.
For `COc1ccc(Cn2c(NCc3cccn4ccnc34)nc(=O)n(Cc3ccc(OC)cc3)c2=O)cc1` [Cpd 188, 6-[(Imidazo[1,2-a]pyridin-8-ylmethyl)-amino]-1,3-bis-(4-methoxy-benzyl)-1H-[1,3,5]triazine-2,4-dione], the inhibition at 10 µM stood at 66% and the IC50 was 579 nM.
Take `COc1ccc(Cn2c(NCc3cnc(C)cc3C)nc(=O)n(Cc3ccc4c(c3)CCO4)c2=O)cc1` [Cpd 123, 3-(2,3-Dihydro-benzofuran-5-ylmethyl)-6-[(4,6-dimethyl-pyridin-3-ylmethyl)-amino]-1-(4-methoxy-benzyl)-1H-[1,3,5]triazine-2,4-dione]: the inhibition at 10 µM came out at 83% and the half-inhibitory concentration (IC50) worked out at 684 nM.
Take `COc1ccc(Cn2c(=O)nc(NCc3c(C)cc(C)nc3N)n(Cc3ccc4c(c3)CC(C)O4)c2=O)cc1` (stereo not drawn) [Cpd 212]: the “Ca^2+ Mobilization % Inh @ 10 μM” value was 99%; the inhibition at 10 µM turned out to be 103%; the 50% inhibitory concentration (IC50) was 21 nM and 50 nM.
Take `COc1ccc(Cn2c(=O)nc(NCc3cccnc3N)n(Cc3ccccc3OC(F)(F)F)c2=O)cc1` [Cpd 87]: the inhibition at 10 µM stood at 53% and the IC50 was over 10000 nM.
For `COCCCCCn1c(=O)nc(NCc2cnc(C)cc2C)n(Cc2ccc(OC(F)F)cc2)c1=O` [Cpd 198], in that order: 64% and 1040 nM.
For `Cc1cc(C)c(CNc2nc(=O)n(Cc3ccc(-c4csnn4)cc3)c(=O)n2Cc2ccc(OC(F)F)cc2)cn1` [Cpd 168], in that order: 68% and 1520 nM.
For the molecule `COc1ccc(Cn2c(OCc3cccnc3N)cc(=O)n(Cc3ccc(OC)cc3)c2=O)cc1` [Cpd 190], the inhibition at 10 µM was 79% and the IC50 was 502 nM.
For `COC(=O)c1ccc(Cn2c(=O)nc(NCc3cccnc3N)n(Cc3ccc(OC)cc3)c2=O)cc1` [Cpd 56], in that order: 47% and over 10000 nM.
For `COc1ccc(Cn2c(NCc3cccnc3NCCN(C)C)nc(=O)n(Cc3ccc(F)cc3)c2=O)cc1` [Cpd 27], in that order: 102% and 88 nM.
In the case of `CC(=O)Oc1ccc(Cn2c(=O)nc(NCc3cnc(C)cc3C)n(Cc3ccc(OC(F)F)cc3)c2=O)cc1` [Cpd 182], the inhibition at 10 µM was 55% and the half-maximal inhibitory concentration (IC50) was found to be 8510 nM.
As to `COc1ccc(Cn2c(=O)nc(NCc3cnc(C)cc3C)n(Cc3ccc(OC(F)F)cc3)c2=O)cc1` [Cpd 96], the half-inhibitory concentration (IC50) is 273 nM.
Take `COc1ccc(Cn2c(=O)nc(NCc3cccnc3N)n(Cc3ccc4cc[nH]c4c3)c2=O)cc1` [Cpd 170]: the inhibition at 10 µM worked out at 96% and the half-inhibitory concentration (IC50) amounted to 32 nM.
For `Cc1cc(-c2ccc(F)cc2)nc(N)c1CNc1nc(=O)n(Cc2ccc3c(c2)CCO3)c(=O)n1Cc1ccc(OC(F)F)cc1` [Cpd 262], in that order: 0.89% and over 10000 nM.
Regarding `COc1ccc(Cn2c(NCc3cccnc3N3CCCC3)nc(=O)n(Cc3ccc(F)cc3)c2=O)cc1` [Cpd 11], the inhibition at 10 µM turned out to be 54% and the IC50 is 6790 nM.
For `COc1ccc(Cn2c(NCCc3ccccn3)nc(=O)n(Cc3ccc(Cl)c(Cl)c3)c2=O)cc1` [Cpd 1], in that order: 37% and over 10000 nM.
For `COc1ccc(Cn2c(NCc3ccc(C(F)(F)F)nc3)nc(=O)n(Cc3ccc(OC)cc3)c2=O)cc1` [Cpd 122], in that order: 76% and 194 nM.
For the molecule `COc1ccc(Cn2c(NCc3cnc(C)cc3C)nc(=O)n(Cc3ccc4occc4c3)c2=O)cc1` [Cpd 133], the inhibition at 10 µM stood at 88% and the half-inhibitory concentration (IC50) is 582 nM.
As for `COc1ccc(Cn2c(=O)nc(NCc3cccnc3N)n(Cc3ccc(OC)cc3OC)c2=O)cc1` [Cpd 200], the inhibition at 10 µM worked out at 87% and the half-inhibitory concentration (IC50) was 304 nM.
Consider `COc1ccc(Cn2c(NCc3cc(-c4ccccc4)cnc3N)nc(=O)n(Cc3ccc(OC)cc3)c2=O)cc1` [Cpd 57], for which the inhibition at 10 µM turned out to be 59% and the 50% inhibitory concentration (IC50) was found to be 4770 nM.
For `COc1ccc(Cn2c(NCc3cccnc3NCCO)nc(=O)n(Cc3ccc(F)cc3)c2=O)cc1` [Cpd 29], in that order: 111% and 110 nM.
For `Cc1cc(C)c(CNc2nc(=O)n(Cc3ccc(-n4cccn4)cc3)c(=O)n2Cc2ccc(OC(F)F)cc2)cn1` [Cpd 158], in that order: 62% and 3840 nM.
For `COc1ccc(Cn2c(NCc3c(C)cc(C)nc3N)nc(=O)n(Cc3ccc4c(c3)nnn4C)c2=O)cc1` [Cpd 222, 6-[(2-Amino-4,6-dimethyl-pyridin-3-ylmethyl)-amino]-1-(4-methoxy-benzyl)-3-(1-methyl-1H-benzotriazol-5-ylmethyl)-1H-[1,3,5]triazine-2,4-dione], in that order: 98% and 60 nM.
Regarding `COCCNc1ncccc1CNc1nc(=O)n(CCc2ccccc2)c(=O)n1Cc1ccc(OC)cc1` [Cpd 71], the inhibition at 10 µM came out at 38% and the concentration for half-maximal inhibition (IC50) is over 10000 nM.
For `COc1ccc(Cn2c(NCc3c(N)nc4c(c3C)CCC4)nc(=O)n(Cc3ccc(OC)cc3)c2=O)cc1` [Cpd 264], in that order: 95% and 74 nM.
For `COc1ccc(Cn2c(=O)nc(NCc3cnc(C)cc3C)n(Cc3ccc4occc4c3)c2=O)cc1` [Cpd 129], in that order: 88% and 120 nM.
`COc1ccc(Cn2c(NCc3cnc(C)cc3C)nc(=O)n(Cc3cccc(OC)c3)c2=O)cc1` [Cpd 111]: the inhibition at 10 µM was 57% and the concentration for half-maximal inhibition (IC50) was 7880 nM.
For `COc1ccc(Cn2c(NCc3ccc(C(F)(F)F)cn3)nc(=O)n(Cc3ccc(OC)cc3)c2=O)cc1` [Cpd 235], in that order: 98% and 85 nM.
For `CCCc1cc(CCC)c(CNc2nc(=O)n(Cc3ccc(OC)cc3)c(=O)n2Cc2ccc(OC)cc2)c(N)n1` [Cpd 265], in that order: 95% and 441 nM.
For `C=CCC(c1ccc(OC)cc1)n1c(=O)nc(NCc2cnc(C)cc2C)n(Cc2ccc(OC)cc2)c1=O` (stereo not drawn) [Cpd 109], in that order: 89% and 681 nM.
For the molecule `Nc1cc(Cn2c(=O)nc(NCc3cccnc3N)n(Cc3ccc4c(c3)CCO4)c2=O)ccc1O` [Cpd 269], the inhibition at 10 µM came out at 22% and the concentration for half-maximal inhibition (IC50) was over 10000 nM.
For `COc1ccc(Cn2c(=O)nc(NCc3cnc(C)cc3C)n(Cc3cccc4cc[nH]c34)c2=O)cc1` [Cpd 172], in that order: 88% and 515 nM.
For `COc1ccc(Cn2c(NCc3ccc(N)cn3)nc(=O)n(Cc3ccc(Cl)cc3)c2=O)cc1` [Cpd 4], in that order: 94% and 357 nM.
